# Laboratory results reported in patent publication US20180334447A1, “2,3,4,5-TETRAHYDROPYRIDIN-6-AMINE DERIVATIVES” (JANSSEN PHARMACEUTICA NV, priority 2015, published 2018).
# Experiments:
# [1] = test system: Abeta 1-37, Abeta 1-38, Abeta 1-40 and Abeta 1-42 in CSF; test: Pharmacology in the Beagle dog: beta-amyloid profile in cerebrospinal fluid (CSF) after a single dose; format: in vivo; conditions: for inhibition in vivo at 0.31 mg/kg / inhibition in vivo at 0.16 mg/kg / inhibition in vivo at 0.63 mg/kg / inhibition in vivo at 1.25 mg/kg / inhibition in vivo at 0.08 mg/kg: Canis lupus familiaris, 8 h post dosing, read-out: % Decrease in Abeta 1-42 at 8 h post dosing compared to own baseline
# Protocol: Test compounds were tested to evaluate the effect on the beta-amyloid profile in cerebrospinal fluid (CSF) of dogs after a single dose, in combination with pharmacokinetic (PK) follow up and limited safety evaluation.
# For each of compound 20, 21, 22 or 41, four beagle dogs (2 males, 2 females) were dosed with vehicle (1 ml/kg of an aqueous solution of 20% cyclodextrin) and 12 beagle dogs (2 males and 2 females per dosage group) were dosed with test compounds as follows:
# In the case of compounds 39, 33 and 31, two beagle dogs (1 male, 1 female) were dosed with vehicle (1 ml/kg of an aqueous solution of 20% cyclodextrin) and 4 beagle dogs (2 males and 2 females) were dosed with test compound […] (0.31 mg/kg in 0.31 mg/ml of an aqueous 20% cyclodextrin solution) on an empty stomach.
# Eight hours after dosing the animals got access to their regular meal for 30 minutes. Blood was taken for PK follow up (0.5, 1, 2, 4, 8, 25 and 49 hours) and serum samples for biochemistry were taken before and at 8 and 25 h after dosing. The CSF samples were used for measurement of Abeta 1-37, Abeta 1-38, Abeta 1-40 and Abeta 1-42.
# [2] = molecular target: T1, recombinant BACE1 protein (Homo sapiens, UniProt P56817); test: BACE1 biochemical FRET based assay - Method 1; conditions: BACE1, 120 minutes at room temperature, pH 5.0; read-out: Biochemical FRET based assay - Method 1 pIC50 (converted)
# T1 construct: recombinant BACE1 protein in a final concentration of 1 μg/ml
# Description: (§1) This assay is a Fluorescence Resonance Energy Transfer Assay (FRET) based assay. The substrate for this assay is an APP derived 13 amino acids peptide that contains the ‘Swedish’ Lys-Met/Asn-Leu mutation of the amyloid precursor protein (APP) beta-secretase cleavage site. This substrate also contains two fluorophores: (7-methoxycoumarin-4-yl) acetic acid (Mca) is a fluorescent donor with excitation wavelength at 320 nm and emission at 405 nm and 2,4-Dinitrophenyl (Dnp) is a proprietary quencher acceptor. […] Upon cleavage by BACE1, the fluorophore Mca is separated from the quenching group Dnp, restoring the full fluorescence yield of the donor. The increase in fluorescence is linearly related to the rate of proteolysis.
# Briefly in a 384-well format recombinant BACE1 protein in a final concentration of 1 μg/ml is incubated for 120 minutes at room temperature with 10 μm substrate in incubation buffer (40 mM Citrate buffer pH 5.0, 0.04% PEG, 4% DMSO) in the absence or presence of compound. Next the amount of proteolysis is directly measured by fluorescence measurement at T=0 and T=120 (excitation at 320 nm and emission at 405 nm). Results are expressed in RFU (Relative Fluorescence Units), as difference between T120 and T0.
# (§2) A best-fit curve is fitted by a minimum sum of squares method to the plot of % Controlmin versus compound concentration. From this an IC50 value (inhibitory concentration causing 50% inhibition of activity) can be obtained.
# [3] = test system: Abetatotal in human neuroblastoma SKNBE2 cells; test: Cellular αLisa assay in SKNBE2 cells, Abetatotal; format: cell-based; conditions: SKNBE2 cells expressing hAPP695, incubated for 18 hours; for IC50: Homo sapiens, SKNBE2, 18 h, read-out: Cellular αLisa assay in SKNBE2 cells Abetatotal pIC50 (converted)
# [4] = molecular target: T2, recombinant BACE2 protein (Homo sapiens, UniProt Q9Y5Z0); test: BACE2 biochemical FRET based assay; conditions: BACE2, 450 minutes at room temperature, pH 5.0; read-out: Biochemical FRET based assay pIC50 (converted)
# T2 construct: recombinant BACE2 protein in a final concentration of 0.4 μg/ml
# T2 sequence (Q9Y5Z0 63-518): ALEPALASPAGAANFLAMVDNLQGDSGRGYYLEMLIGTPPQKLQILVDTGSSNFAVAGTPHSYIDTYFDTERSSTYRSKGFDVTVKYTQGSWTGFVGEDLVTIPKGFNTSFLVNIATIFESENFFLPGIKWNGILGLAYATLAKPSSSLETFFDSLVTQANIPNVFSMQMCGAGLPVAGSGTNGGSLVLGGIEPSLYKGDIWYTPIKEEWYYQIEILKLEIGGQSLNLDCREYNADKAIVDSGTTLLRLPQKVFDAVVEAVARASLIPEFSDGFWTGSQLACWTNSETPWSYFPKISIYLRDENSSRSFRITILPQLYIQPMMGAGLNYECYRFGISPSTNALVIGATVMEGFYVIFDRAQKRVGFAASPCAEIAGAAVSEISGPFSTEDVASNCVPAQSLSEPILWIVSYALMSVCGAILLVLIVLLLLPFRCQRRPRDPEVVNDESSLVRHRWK
# Description: as §1, with “assay” for “assay is an APP derived 13 amino acids peptide that”, “the beta-secretase,” for “BACE1,”
# Briefly in a 384-well format recombinant BACE2 protein in a final concentration of 0.4 μg/ml is incubated for 450 minutes at room temperature with 10 μM substrate in incubation buffer (50 mM Citrate buffer pH 5.0, 0.05% PEG, no DMSO) in the absence or presence of compound. Next the amount of proteolysis is directly measured by fluorescence measurement at T=0 and T=450 (excitation at 320 nm and emission at 405 nm). Results are expressed in RFU (Relative Fluorescence Units), as difference between T450 and T0.
# as §2
# [5] = test system: Abeta 1-42 produced and secreted into the medium of human neuroblastoma SKNBE2 cells; test: Cellular αLisa assay in SKNBE2 cells, Abeta 42; format: cell-based; conditions: SKNBE2 cells expressing hAPP695, incubated for 18 hours; for IC50: Homo sapiens, SKNBE2, 18 h, read-out: Cellular αLisa assay in SKNBE2 cells Abeta 42 pIC50 (converted)
# Protocol: In two αLisa assays the levels of Abeta 1-42 produced and secreted into the medium of human neuroblastoma SKNBE2 cells are quantified. The assay is based on the human neuroblastoma SKNBE2 expressing the wild type Amyloid Precursor Protein (hAPP695). The compounds are diluted and added to these cells, incubated for 18 hours and then measurements of Abeta 1-42 are taken. Abeta 1-42 are measured by sandwich αLisa. αLisa is a sandwich assay using biotinylated antibody AbN/25 attached to streptavidin coated beads and antibody cAb42/26 conjugated acceptor beads for the detection of Abeta 1-42 respectively. In the presence of Abeta 1-42, the beads come into close proximity. The excitation of the donor beads provokes the release of singlet oxygen molecules that trigger a cascade of energy transfer in the acceptor beads, resulting in light emission. Light emission is measured after 1 hour incubation (excitation at […] and emission at 615 nm).
# as §2
# [6] = single dose 0.31 mg/kg, 25 h post dosing (b)
# T1 sequence (P56817 46-501): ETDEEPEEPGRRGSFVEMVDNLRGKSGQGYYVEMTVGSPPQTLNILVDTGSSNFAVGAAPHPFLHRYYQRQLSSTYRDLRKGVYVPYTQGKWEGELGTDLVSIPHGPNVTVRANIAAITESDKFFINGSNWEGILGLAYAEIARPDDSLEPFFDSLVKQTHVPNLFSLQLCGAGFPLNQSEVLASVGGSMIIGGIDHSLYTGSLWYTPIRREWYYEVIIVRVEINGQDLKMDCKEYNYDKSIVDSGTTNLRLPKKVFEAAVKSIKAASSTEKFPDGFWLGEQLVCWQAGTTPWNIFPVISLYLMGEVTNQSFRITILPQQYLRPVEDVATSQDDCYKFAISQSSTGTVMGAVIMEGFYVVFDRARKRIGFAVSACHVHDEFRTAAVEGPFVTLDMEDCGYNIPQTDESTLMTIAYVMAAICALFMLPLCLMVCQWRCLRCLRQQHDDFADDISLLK
SMILES,IC50 [2] [nM],IC50 [4] [nM],IC50 [3] [nM],IC50 [5] [nM],inhibition in vivo at 0.31 mg/kg ([1]; single dose 0.31 mg/kg) [%],further results
CC1(S(C)(=O)=O)CCC(CF)(c2cc(NC(=O)c3cnc(OC(F)F)cn3)ccc2F)N=C1N (centres unmarked) [Compound 32],1.05,11.5,0.309,0.398,76,
CC1(S(C)(=O)=O)CCC(CF)(c2cc(NC(=O)c3ccc(C#N)cn3)ccc2F)N=C1N (centres unmarked) [Compound 22],1.12,5.25,,1.15,78,"inhibition in vivo at 0.08 mg/kg ([1]; single dose 0.08 mg/kg): 50%; % Decrease in Abeta 1-42 at 24 h^(a) or 25 h^(b) post dosing compared to own baseline ([1]; single dose 0.08 mg/kg, 24 h post dosing (a)): 54^(a) %; % Decrease in Abeta 1-42 at 49 h post dosing compared to own baseline ([1]; single dose 0.31 mg/kg): 71%"
CC1(S(C)(=O)=O)CCC(CF)(c2cc(NC(=O)c3cnc(OCC(F)(F)F)cn3)ccc2F)N=C1N (centres unmarked) [Compound 39],1.29,25.1,2.14,1.38,53,"% Decrease in Abeta 1-42 at 24 h^(a) or 25 h^(b) post dosing compared to own baseline [1, 6]: 44^(b) %"
COc1cnc(C(=O)Nc2ccc(F)c([C@@]3(C)N=C(N)[C@@](C)(C#N)C[C@]3(C)F)c2)cn1 [Compound 28],1150,> 10000,501,550,,
CC1(S(C)(=O)=O)CCC(CF)(c2cc(NC(=O)c3ncc(OC(F)F)cn3)ccc2F)N=C1N (centres unmarked) [Compound 36],4.27,28.2,4.37,4.37,,
C[C@@]1(S(C)(=O)=O)CC[C@@](CF)(c2cc(NC(=O)c3cnc(OCF)cn3)ccc2F)N=C1N [Compound 41],2.19,16.6,,1.62,78,"inhibition in vivo at 0.16 mg/kg ([1]; single dose 0.16 mg/kg): 71%; inhibition in vivo at 1.25 mg/kg ([1]; single dose 1.25 mg/kg): 89%; % Decrease in Abeta 1-42 at 24 h^(a) or 25 h^(b) post dosing compared to own baseline ([1]; single dose 0.16 mg/kg, 25 h post dosing (b)): 26^(b) %; % Decrease in Abeta 1-42 at 24 h^(a) or 25 h^(b) post dosing compared to own baseline [1, 6]: 49^(b) %; % Decrease in Abeta 1-42 at 49 h post dosing compared to own baseline ([1]; single dose 1.25 mg/kg): 41%"
COc1cnc(C(=O)Nc2ccc(F)c([C@@]3(C)N=C(N)[C@](C)(C#N)C[C@]3(C)F)c2)cn1 [Compound 27],41.7,389,16.2,17.4,,
CC1(S(C)(=O)=O)CCC(CF)(c2cc(NC(=O)c3cnc(OCC(F)F)cn3)ccc2F)N=C1N (centres unmarked) [Compound 35],3.72,44.7,2.82,3.09,,
C[C@@]1(c2cc(NC(=O)c3ccc(F)cn3)ccc2F)CC[C@@](CF)(S(C)(=O)=O)C(N)=N1 [Compound 26],14.8,11,4.07,5.25,,
Cc1cc(C#N)cnc1C(=O)Nc1ccc(F)c([C@]2(CF)CC[C@@](C)(S(C)(=O)=O)C(N)=N2)c1 [Compound 21],1.38,5.01,,0.813,78,"inhibition in vivo at 0.08 mg/kg ([1]; single dose 0.08 mg/kg): 49%; inhibition in vivo at 0.63 mg/kg ([1]; single dose 0.63 mg/kg): 70%; % Decrease in Abeta 1-42 at 24 h^(a) or 25 h^(b) post dosing compared to own baseline [1, 6]: 69^(b) %"

# More lines, main results first:
IC50 [2] [nM],IC50 [4] [nM],IC50 [3] [nM],IC50 [5] [nM],SMILES,inhibition in vivo at 0.31 mg/kg ([1]; single dose 0.31 mg/kg) [%],further results
4.27,3.55,,,"CC(C)S(=O)(=O)C1(C)CCC(CF)(c2cc(NC(=O)c3ccc(F)cn3)ccc2F)N=C1N (single isomer, unassigned) [Compound 33]",34,Cellular αLisa assay in SKNBE2 cells Abetatotal pIC50 [3]: 8.37; Cellular αLisa assay in SKNBE2 cells Abeta 42 pIC50 [5]: 8.32
3.02,3.02,2.57,2.51,C[C@@]1(S(C)(=O)=O)CC[C@@](CF)(c2cc(NC(=O)c3ccc(F)cn3)ccc2F)N=C1N [Compound 20],,"inhibition in vivo at 0.16 mg/kg ([1]; single dose 0.16 mg/kg): 54%; inhibition in vivo at 0.63 mg/kg ([1]; single dose 0.63 mg/kg): 75%; inhibition in vivo at 1.25 mg/kg ([1]; single dose 1.25 mg/kg): 77%; % Decrease in Abeta 1-42 at 24 h^(a) or 25 h^(b) post dosing compared to own baseline ([1]; single dose 0.16 mg/kg, 24 h post dosing (a)): 44^(a) %; % Decrease in Abeta 1-42 at 49 h post dosing compared to own baseline ([1]; single dose 0.63 mg/kg): 29%; % Decrease in Abeta 1-42 at 49 h post dosing compared to own baseline ([1]; single dose 1.25 mg/kg): 65%"
3630,4270,,,"CC(C)S(=O)(=O)C1(C)CCC(CF)(c2cc(NC(=O)c3ccc(F)cn3)ccc2F)N=C1N (single isomer, unassigned) [Compound 34]",,Cellular αLisa assay in SKNBE2 cells Abetatotal pIC50 [3]: 5.72; Cellular αLisa assay in SKNBE2 cells Abeta 42 pIC50 [5]: 5.56
1.7,2.63,1.78,1.91,CCS(=O)(=O)C1(C)CCC(CF)(c2cc(NC(=O)c3ccc(F)cn3)ccc2F)N=C1N (centres unmarked) [Compound 31],31,
15.8,24.5,13.5,15.8,CCC1(S(=O)(=O)CC)CCC(CF)(c2cc(NC(=O)c3ccc(F)cn3)ccc2F)N=C1N (centres unmarked) [Compound 30],,
871,776,182,851,CC[C@]1(S(C)(=O)=O)CC[C@@](CF)(c2cc(NC(=O)c3ccc(F)cn3)ccc2F)N=C1N [Compound 29a],,
